Key:
JARID1B = molecular target: T1, JARID1B (Homo sapiens, UniProt Q9UGL1); assay: FLAG-JARID1B histone demethylase assay with AlphaScreen detection (HTS and dose response); format: biochemical; details: for Assay − Artifact Signal (percent): assay signal minus artifact signal; for inhibition at 20 µM: high-throughput screen, compound 20 μM, standard demethylase conditions (10 μM α-KG, 50 μM Fe (II)), read-out: Inhibitory effect (percent); for Assay Signal (percent) / Validation result of HTS active: effect of the compound in the JARID1B AlphaScreen demethylase assay: validation of HTS actives; for Assay Signal (percent): effect of compound in JARID1B AlphaScreen assay; for Validation result of HTS active: effect of the compound in the JARID1B AlphaScreen demethylase assay: total signal before subtraction of artifact signal;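 as to Assay Signal (percent): compound tested at 20 µM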;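 as to Assay − Artifact Signal (percent): compound tested at 20 µM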;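 as to all read-outs here: FLAG-tagged JARID1B at 4 nM acting on a biotinylated H3K4me3 peptide, demethylation read by AlphaScreen luminescence, with hits checked against bio-H3K4me2 without enzyme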
T1 construct: The FLAG tagged full length JARID1B enzyme was expressed in Sf21 insect cells using FLAG-JARID1B baculoviruses; FLAG (N); made in house; host or cells: Sf21 insect cells (baculovirus)

[1] = AlphaScreen counterscreen against bio-H3K4me2 peptide in the absence of enzyme (artifact signal); details: for Artifact Signal (percent): effect of the compound when incubated with bio-H3K4me2 peptide (counterscreen, no enzyme); for Artifact signal: effect of the compound when it is incubated with bio-H3K4me2 peptide: counterscreen, no enzyme;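 as to all read-outs here: counterscreen run without enzyme against bio-H3K4me2 peptide to remove false positive hits from the JARID1 demethylase AlphaScreen screen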

T1 sequence (Q9UGL1 whole entry): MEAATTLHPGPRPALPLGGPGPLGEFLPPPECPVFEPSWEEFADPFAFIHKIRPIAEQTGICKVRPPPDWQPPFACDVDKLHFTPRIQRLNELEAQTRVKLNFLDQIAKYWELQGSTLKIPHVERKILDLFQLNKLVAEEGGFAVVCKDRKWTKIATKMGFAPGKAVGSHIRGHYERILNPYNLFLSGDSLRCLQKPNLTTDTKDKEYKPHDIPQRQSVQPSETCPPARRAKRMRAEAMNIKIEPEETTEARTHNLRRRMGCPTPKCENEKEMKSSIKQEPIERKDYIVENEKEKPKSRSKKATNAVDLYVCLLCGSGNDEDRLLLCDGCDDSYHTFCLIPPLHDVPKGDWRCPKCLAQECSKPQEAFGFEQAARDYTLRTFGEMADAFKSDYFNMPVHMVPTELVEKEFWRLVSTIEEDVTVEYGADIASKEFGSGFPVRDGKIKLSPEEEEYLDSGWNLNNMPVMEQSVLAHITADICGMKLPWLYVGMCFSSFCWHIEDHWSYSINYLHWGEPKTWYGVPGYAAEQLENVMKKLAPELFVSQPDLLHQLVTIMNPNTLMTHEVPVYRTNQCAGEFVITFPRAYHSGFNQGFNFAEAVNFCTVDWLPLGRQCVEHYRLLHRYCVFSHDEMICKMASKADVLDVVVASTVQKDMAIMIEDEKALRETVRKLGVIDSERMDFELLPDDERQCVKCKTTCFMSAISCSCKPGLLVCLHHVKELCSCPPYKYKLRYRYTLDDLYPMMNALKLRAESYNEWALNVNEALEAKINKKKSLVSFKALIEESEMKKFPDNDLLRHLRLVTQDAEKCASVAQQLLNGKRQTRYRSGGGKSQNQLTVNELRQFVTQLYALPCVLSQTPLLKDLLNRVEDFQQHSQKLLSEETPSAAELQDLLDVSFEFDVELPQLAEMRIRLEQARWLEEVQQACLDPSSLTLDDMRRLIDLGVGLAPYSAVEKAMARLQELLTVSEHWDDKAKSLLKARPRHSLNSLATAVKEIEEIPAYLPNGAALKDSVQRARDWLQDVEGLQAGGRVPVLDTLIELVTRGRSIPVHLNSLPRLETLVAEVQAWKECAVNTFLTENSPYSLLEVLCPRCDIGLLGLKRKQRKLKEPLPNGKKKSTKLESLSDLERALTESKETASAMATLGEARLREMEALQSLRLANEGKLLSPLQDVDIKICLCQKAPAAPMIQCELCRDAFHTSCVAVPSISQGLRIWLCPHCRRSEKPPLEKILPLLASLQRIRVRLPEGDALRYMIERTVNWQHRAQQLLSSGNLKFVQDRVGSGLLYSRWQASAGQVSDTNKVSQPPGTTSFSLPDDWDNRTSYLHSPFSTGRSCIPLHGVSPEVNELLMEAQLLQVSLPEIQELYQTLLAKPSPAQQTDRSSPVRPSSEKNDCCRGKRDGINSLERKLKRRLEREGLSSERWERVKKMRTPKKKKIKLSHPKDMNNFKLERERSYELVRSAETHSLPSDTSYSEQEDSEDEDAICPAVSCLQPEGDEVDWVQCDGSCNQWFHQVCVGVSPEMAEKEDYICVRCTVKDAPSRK

Structure (SMILES)	Assay − Artifact Signal (percent) (JARID1B) [%]	inhibition at 20 µM (JARID1B) [%]	Assay Signal (percent) (JARID1B) [%]	Artifact Signal (percent) [1] [%]	Validation result of HTS active: effect of the compound in the JARID1B AlphaScreen demethylase assay (JARID1B)	Artifact signal: effect of the compound when it is incubated with bio-H3K4me2 peptide [1]
Cl.Cn1cccc1CNCc1ccncc1 [YU145853]	57.65	76.6	66.64	8.99		
CN(C)c1cccc2c(C=O)ccc(N(C)C)c12 [YU145980]	28.03	32.3	35.60	7.56		
Cc1cc(C)nc(Nc2ccc(N(C)C)cc2)n1 [YU146020]	8.99	30.9	12.15	3.15		
Cc1ccc(-n2sc3ccccc3c2=O)cc1 [YU146026]	85.63	87.8	88.51	2.88		
COC(=O)Nc1nnc(CC2CCCC2)s1 [YU146034]	21.12	33	18.33	<2.79		
O=C(NCCOc1ccccc1)c1ccccc1 [YU146037]		32.6			−0.56	−1.42
c1cc(CNc2ccc3c(c2)OCCO3)ccn1 [YU146041]	54.24	48.7	55.23	0.99		
C=CCNCCCCOc1cccc(OCC)c1 [YU146294]	8.13	36.5	14.08	5.94		
COc1ccc(CNn2c(C)nnc2S)cc1 [YU146438]	42.15	36.9	50.33	8.17		
O=Cc1ccc(-c2ccc(S(=O)(=O)O)cc2)o1 [YU146454]	68.83	42.3	64.68	−4.14		
COc1ccccc1OCc1nnc(S)n1C [YU146471]	47.93	36.4	46.29	−1.64		
N#CC(=Cc1ccc(-c2ccccc2)o1)C(N)=S [YU146534]	10.89	32.8	15.42	4.53		
O=C(O)CCCSCC(=O)Nc1ccccc1 [YU146590]	10.85	60.2	13.35	2.50		
COc1cc(C=O)ccc1OC(=O)c1ccncc1 [YU146698]	53.39	52.5	48.27	−5.12		
Fc1cccc(Cl)c1CNn1cnnc1S [YU146768]	49.49	34	48.97	−0.52		
C=CCn1c(-c2ccc([N+](=O)[O-])cc2)n[nH]c1=S [YU147005]	34.06	36.8	37.42	3.36		
S=C(Nc1ccc2c(c1)OCO2)Nn1cnnc1 [YU147019]	17.76	37.3	16.46	−1.29		
Cc1ccccc1C(=O)NCc1nnc(S)n1C [YU147024]	35.27	31.6	29.44	−5.84		
O=C(NC(=S)NCc1ccccc1)C1CCCC1 [YU147054]	24.52	33.9	22.98	−1.54		
N#CC(=Cc1ccncc1)c1nc2ccccc2s1 [YU147088]	45.66	39.8	46.00	0.34		
Cc1nnc(S)n1NCc1ccc2c(c1)OCO2 [YU147191]	43.11	31.5	45.05	1.94		
COCCCNCCOc1cc(C(C)C)ccc1C [YU147245]	12.07	30.9	13.31	1.25		
CCOc1cc(CN)cc(Cl)c1OCC.Cl [YU147266]	69.10	68.6	69.21	0.11		

Structure (SMILES)	Assay − Artifact Signal (percent) (JARID1B) [%]	inhibition at 20 µM (JARID1B) [%]	Assay Signal (percent) (JARID1B) [%]	Artifact Signal (percent) [1] [%]	Validation result of HTS active: effect of the compound in the JARID1B AlphaScreen demethylase assay (JARID1B)	Artifact signal: effect of the compound when it is incubated with bio-H3K4me2 peptide [1]
CCSc1nnc(-c2cc(OC)cc(OC)c2)o1 [YU147278]	15.14	32.8	9.43	−5.71		
Cn1c(S)nnc1CSCc1ccc(F)cc1 [YU147498]	23.24	31.1	19.36	−3.87		
Cc1cc(OCc2nc3ccccc3s2)ccc1N [YU147615]	13.88	40.4	14.43	0.54		
CNCCCOc1ccc(OCc2ccccc2)cc1 [YU147640]		39.1			5.15	−2.82
C=CCn1c(Cc2nc3ccccc3[nH]2)n[nH]c1=S [YU147658]	28.18	32.8	27.63	−0.55		
COc1ccc2nc(NCc3ccncc3)sc2c1 [YU147704]	54.05	70.4	55.47	1.42		
Cc1nc(NC(=O)c2cc3ccccc3o2)sc1C [YU147750]		86.4			−2.53	−6.59
O=S(=O)(NN1CCOCC1)c1ccc(Cl)cc1 [YU148050]	17.03	36.1	20.47	3.44		
COC(=O)c1cccc(OCC(O)Cn2ccnc2)c1 (centres unmarked) [YU148087]	8.48	51.4	15.48	7.00		
C=CCn1c(-c2cccc(OC)c2OC)n[nH]c1=S [YU148159]	35.74	30.4	38.72	2.98		
O=C(NNC(=S)NCC1CCCO1)c1ccccn1 (centres unmarked) [YU148374]	54.50	84.8	77.28	22.77		
COc1ccc(Cl)cc1NC(=S)Nn1cnnc1 [YU148611]	17.82	34.6	15.61	−2.20		
O=C(NCCc1ccc(F)cc1)C(Cl)(Cl)Cl [YU148680]		63.9			−2.95	−10.90
Cc1ccc(C(=O)Nc2nnc(-c3ccncc3)s2)o1 [YU148889]	9.49	44.6	16.16	6.66		
S=C(Nc1cccc(Cl)c1Cl)Nn1cnnc1 [YU149002]	12.28	37.9	15.58	3.30		
C=CCn1c(S)nnc1CNC(=O)c1cccc(C)c1 [YU149014]	49.04	35.7	47.61	−1.43		
Cn1cnnc1SCC(=O)c1ccc(C(C)(C)C)cc1 [YU149180]	52.70	32	50.21	−2.49		
Cc1cccc(C(=O)NNC(=S)NC(=O)CC(C)C)c1 [YU149514]		48.4			−2.24	−8.22
COC(=O)NC1(C(F)(F)F)C(=O)NC(C)=C1C(=O)OC (centres unmarked) [YU149831]	11.45	34	13.59	2.14		
c1cc2c(cc1CNc1ccc(N3CCCC3)cc1)OCO2 [YU149834]		48.1			28.52	27.95
CCOc1cccc(CNc2ccc(N3CCCC3)cc2)c1 [YU149839]	13.21	47.5	31.65	18.44		
Cc1cc(C(=O)Nc2cccc(Cn3cccn3)c2)cs1 [YU149922]		56.7			−6.24	−8.78
Cc1cccc(-n2c(=O)c(O)nc3cc([N+](=O)[O-])ccc32)c1 [YU149941]		51.1			−12.32	−16.01

Source: patent US20150272939A1, “Identification of Small Molecule Inhibitors of Jumonji AT-Rich Interactive Domain 1A (JARID1A) and 1B (JARID1B) Histone Demethylase” (Yale University, priority 2012, published 2015)
